Experimental findings from PubChem BioAssay AID180 (DTP/NCI, 2004) are described below.

In this assay the test system is BDF1 mice, Adenocarcinoma 755 s.c., tumor weight T/C. Briefly: NCI In Vivo Anticancer Drug Screen. Data for tumor model Adenocarcinoma 755 (subcutaneous) in B6D2F1 (BDF1) mice. As to conditions: endpoint: mean tumor weight, higher = larger tumour. The gist of the method: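 Values express treated (T) relative to vehicle-dosed control (C) animals, based on survival or tumour size measured after compound treatment of mice bearing a transplanted tumour.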

[1] abbreviates: dose: 15.0 mg/kg/injection, schedule: Q01DX011 (ip), vehicle: saline.
Where [2] appears, read: dose: 31.0 mg/kg/injection, schedule: Q01DX011 (ip), vehicle: saline.
The mark [3] stands for this setting: dose: 75.0 mg/kg/injection, schedule: Q01DX011 (ip), vehicle: methylcellulose (MC).
Where [4] appears, read: dose: 25.0 mg/kg/injection, schedule: Q01DX011 (ip), vehicle: methylcellulose (MC).
[5] abbreviates: dose: 31.0 mg/kg/injection, schedule: Q01DX011 (ip), vehicle: methylcellulose (MC).
The mark [6] stands for this setting: dose: 62.0 mg/kg/injection, schedule: Q01DX011 (ip), vehicle: methylcellulose (MC).
[7] abbreviates: dose: 250.0 mg/kg/injection, schedule: Q01DX011 (ip), vehicle: methylcellulose (MC).
Setting [8] is: dose: 50.0 mg/kg/injection, schedule: Q01DX011 (ip), vehicle: methylcellulose (MC).
Where [9] appears, read: dose: 100.0 mg/kg/injection, schedule: Q01DX011 (ip), vehicle: methylcellulose (MC).

Values joined by “and” are separate entries in the source; they are usually repeats but may differ in a detail not shown here. Identical values can stand only once.

What is called T/C is the ratio of treated to control. On to `CN(C)N=Nc1ccc(CCC(=O)NN)cc1`, for which the T/C is, setting by setting: (dose: 10.0 mg/kg/injection, schedule: Q01DX011 (ip), vehicle: saline) 63 % of control; under setting [1], 56 % of control; (dose: 20.0 mg/kg/injection, schedule: Q01DX011 (ip), vehicle: saline) 44 % of control; under setting [2], 40 % of control.
In the case of `Nc1nc(SCc2ccc(Cl)cc2)c2ncn(C3OC(CO)C(O)C3O)c2n1` (stereo not drawn), the T/C is, setting by setting: (dose: 37.5 mg/kg/injection, schedule: Q01DX011 (ip), vehicle: methylcellulose (MC)) 6 % of control; under setting [3], 1 % of control.
For the compound `Cc1nc(N2CC2)nc(N2CC2)c1[N+](=O)[O-]`, the T/C is 47 % of control (dose: 0.6 mg/kg/injection, schedule: Q01DX011 (ip), vehicle: methylcellulose (MC)); 59 % of control (dose: 1.1 mg/kg/injection, schedule: Q01DX011 (ip), vehicle: methylcellulose (MC)); 12 % of control (dose: 2.25 mg/kg/injection, schedule: Q01DX011 (ip), vehicle: methylcellulose (MC)).
Take `CSc1ncc(Br)c(NCc2ccccc2Cl)n1`: the T/C by setting is: under setting [4], 65 % of control; under setting [5], 106 % of control; under setting [6], 103 % of control; (dose: 125.0 mg/kg/injection, schedule: Q01DX011 (ip), vehicle: methylcellulose (MC)) 85 % of control; under setting [7], 80 % of control.
For the compound `NS(=O)(=O)c1nc2nc[nH]c2c(=O)[nH]1`, the T/C was 66 % of control (dose: 25.0 mg/kg/injection, schedule: Q01DX011 (ip), vehicle: carboxymethylcellulose (CMC)); 78 % of control (dose: 75.0 mg/kg/injection, schedule: Q01DX011 (ip), vehicle: carboxymethylcellulose (CMC)); 61 % of control (dose: 225.0 mg/kg/injection, schedule: Q01DX011 (ip), vehicle: carboxymethylcellulose (CMC)).
Regarding `CNC(=O)C(C)C`, the T/C is 44 % of control (dose: 31.2 mg/kg/injection, schedule: Q01DX011 (ip), vehicle: other); 90 % of control (dose: 62.5 mg/kg/injection, schedule: Q01DX011 (ip), vehicle: other); 90 % of control (dose: 125.0 mg/kg/injection, schedule: Q01DX011 (ip), vehicle: other); 77 % of control (dose: 250.0 mg/kg/injection, schedule: Q01DX011 (ip), vehicle: other).
For the compound `O=C(CCCl)N1CCN(c2ccccc2)CC1`, the T/C by setting is: under setting [4], 51 % of control; under setting [3], 61 % of control; (dose: 225.0 mg/kg/injection, schedule: Q01DX011 (ip), vehicle: methylcellulose (MC)) 60 % of control.
For `CCCCn1cnc2c(SCc3ccccc3F)nc(N)nc21`, the T/C runs as follows: (dose: 6.25 mg/kg/injection, schedule: Q01DX011 (ip), vehicle: methylcellulose (MC)) 81 % of control; (dose: 12.5 mg/kg/injection, schedule: Q01DX011 (ip), vehicle: methylcellulose (MC)) 41 % of control; under setting [4], 18 % of control; under setting [8], 3 % of control; under setting [9], 5 % of control.
Take `Nc1nc(SCc2ccccc2)c2ncn(C3CCCO3)c2n1` (stereo not drawn): the T/C reads like this: (dose: 1.8 mg/kg/injection, schedule: Q01DX011 (ip), vehicle: methylcellulose (MC)) 68 % of control; (dose: 3.7 mg/kg/injection, schedule: Q01DX011 (ip), vehicle: methylcellulose (MC)) 45 % of control; (dose: 7.5 mg/kg/injection, schedule: Q01DX011 (ip), vehicle: methylcellulose (MC)) 2 % of control and 5 % of control; (dose: 20.0 mg/kg/injection, schedule: Q01DX011 (ip), vehicle: methylcellulose (MC)) 2 % of control.
`CNC(=O)Cc1ccccc1`: the T/C by setting is: (dose: 125.0 mg/kg/injection, schedule: Q01DX011 (ip), vehicle: water) 70 % of control; (dose: 250.0 mg/kg/injection, schedule: Q01DX011 (ip), vehicle: water) 63 % of control; (dose: 500.0 mg/kg/injection, schedule: Q01DX011 (ip), vehicle: water) 30 % of control.
Turning to `CC1CN1P1(N2CC2C)=NP(N2CC2C)(N2CC2C)=NP(N2CC2C)(N2CC2C)=N1` (stereo not drawn), the T/C (dose: 3.0 mg/kg/injection, schedule: Q01DX011 (ip), vehicle: saline) was 81 % of control; the T/C (dose: 5.0 mg/kg/injection, schedule: Q01DX011 (ip), vehicle: saline) was 53 % of control; the T/C (dose: 9.0 mg/kg/injection, schedule: Q01DX011 (ip), vehicle: saline) is 52 % of control; the T/C (dose: 18.0 mg/kg/injection, schedule: Q01DX011 (ip), vehicle: saline) is 20 % of control and 35 % of control; the T/C (dose: 36.0 mg/kg/injection, schedule: Q01DX011 (ip), vehicle: saline) was 9 % of control; the T/C (dose: 75.0 mg/kg/injection, schedule: Q01DX011 (ip), vehicle: saline) was 24 % of control.
Regarding `O=c1[nH]c(=O)c2[nH]c(N=Nc3ccc(N(CCCl)CCCl)cc3)nc2[nH]1`, the T/C reads like this: (dose: 25.0 mg/kg/injection, schedule: Q01DX011 (ip), vehicle: saline) 74 % of control; (dose: 50.0 mg/kg/injection, schedule: Q01DX011 (ip), vehicle: saline) 56 % of control; (dose: 100.0 mg/kg/injection, schedule: Q01DX011 (ip), vehicle: saline) 6 % of control and 19 % of control.
With `COC(=O)c1cc(=O)[nH]c(N)n1`, the T/C was 101 % of control under setting [1]; 150 % of control under setting [2]; 97 % of control (dose: 62.0 mg/kg/injection, schedule: Q01DX011 (ip), vehicle: saline); 81 % of control (dose: 125.0 mg/kg/injection, schedule: Q01DX011 (ip), vehicle: saline); 113 % of control (dose: 250.0 mg/kg/injection, schedule: Q01DX011 (ip), vehicle: saline).
For the compound `Cn1cnc2c(ncn2C2OC(CO)C(O)C2O)c1=N` (stereo not drawn), the T/C (dose: 30.0 mg/kg/injection, schedule: Q01DX011 (ip), vehicle: saline) is 118 % of control; the T/C (dose: 120.0 mg/kg/injection, schedule: Q01DX011 (ip), vehicle: saline) is 47 % of control; the T/C (dose: 240.0 mg/kg/injection, schedule: Q01DX011 (ip), vehicle: saline) is 74 % of control.
Regarding `CCCCNc1cc(=O)[nH]c(N)n1`, the T/C (dose: 55.0 mg/kg/injection, schedule: Q01DX011 (ip), vehicle: methylcellulose (MC)) is 53 % of control.
On to `Cc1ccccc1Nc1cc(=S)nc(N)[nH]1`, for which the T/C is, setting by setting: (dose: 15.0 mg/kg/injection, schedule: Q01DX011 (ip), vehicle: methylcellulose (MC)) 122 % of control; under setting [5], 91 % of control; under setting [6], 92 % of control; under setting [7], 84 % of control.
On to `Nc1nc(SCc2ccccc2)c2ncn(C3OC(CO)C(O)C3O)c2n1` (stereo not drawn), for which the T/C is, setting by setting: under setting [4], 10 % of control; under setting [8], 7 % of control; under setting [3], 8 % of control; under setting [9], 6 % of control.
With `CC(=O)OCC1OC(n2ncc(=O)[nH]c2=O)C(OC(C)=O)C1OC(C)=O` (stereo not drawn), the T/C is, setting by setting: (dose: 187.5 mg/kg/injection, schedule: Q01DX011 (ip), vehicle: other) 115 % of control; (dose: 375.0 mg/kg/injection, schedule: Q01DX011 (ip), vehicle: other) 121 % of control; (dose: 1500.0 mg/kg/injection, schedule: Q01DX011 (ip), vehicle: other) 43 % of control.
On to `C[C@]12CCC(=O)C=C1CC[C@@H]1[C@@H]2C(=O)C[C@@]2(C)[C@H]1CC[C@]2(O)C(=O)COS(=O)(=O)O`, for which the T/C is 100 % of control (dose: 5.0 mg/kg/injection, schedule: Q01DX011 (sc), vehicle: steriod suspending solution); 91 % of control (dose: 50.0 mg/kg/injection, schedule: Q01DX011 (sc), vehicle: steriod suspending solution); 57 % of control (dose: 100.0 mg/kg/injection, schedule: Q01DX011 (sc), vehicle: steriod suspending solution).
